# Results reported in patent US9073940B2, “Tricyclic pyrazol amine derivatives” (MERCK SERONO SA, priority 2009, dated 2015).
# Structures can show the parent of a compound that is named as a salt.
# Tested on: 4 PI3K isoforms (Human recombinant GST-PI3K)
# Assay: PI3K scintillation proximity assay, best IC50 obtained with the four isoforms (alpha, beta, delta, gamma)
# Assay type: biochemical
# Details: best IC50 obtained with the four isoforms of PI3K; read-out: Best potency measured on the 4 PI3K isoforms
row,SMILES,IC50 [µM]
1,"O=C(c1nn(C2CCCN(CCC3CCOCC3)C2)c2c1CS(=O)(=O)c1ccccc1-2)N1CCOCC1 (stereo not drawn) [Example 224, 3-(Morpholin-4-ylcarbonyl)-1-{1-[2-(tetrahydro-2H-pyran-4-yl)ethyl]piperidin-3-yl)-1,4-dihydrothiochromeno[4,3-c]pyrazole 5,5-dioxide]",0.054
2,O=C(c1nn(C2CCNCC2)c2c1CS(=O)(=O)c1ccccc1-2)N1CCOCC1 [Example 74],1.52
3,"CN1CCN(C(=O)c2cccc(-n3nc(C(=O)N4CCOCC4)c4c3-c3ccccc3S(=O)(=O)C4)c2)CC1 [Example 124, 1-{3-[(4-Methylpiperazin-1-yl)carbonyl]phenyl}-3-(morpholin-4-ylcarbonyl)-1,4-dihydrothiochromeno[4,3-c]pyrazole 5,5-dioxide]",0.253
4,"O=C(c1nn([C@H]2CCN(CCC3CCOCC3)C2)c2c1CS(=O)(=O)c1c(F)cccc1-2)N1CCOCC1 (single isomer, unassigned) [Example 354, 6-fluoro-3-(morpholin-4-ylcarbonyl)-1-{1-[2-(tetrahydro-2H-pyran-4-yl)ethyl]pyrrolidin-3-yl}-1,4-dihydrothiochromeno[4,3-c]pyrazole 5,5-dioxide hydrochloride salt]",0.092
5,"O=C(c1nn(C2CCOCC2)c2c1C(F)S(=O)(=O)c1ccccc1-2)N1CCOCC1 (stereo not drawn) [Example 316, 4-Fluoro-3-(morpholin-4-ylcarbonyl)-1-(tetrahydro-2H-pyran-4-yl)-1,4-dihydrothiochromeno[4,3-c]pyrazole 5,5-dioxide]",9.8
6,"COCCn1nc(C(=O)N2CCOCC2)c2c1-c1ccccc1S(=O)(=O)C2 [Example 53, 1-(2-methoxyethyl)-3-(morpholin-4-ylcarbonyl)-1,4-dihydrothiochromeno[4,3-c]pyrazole 5,5-dioxide]",1.29
7,O=C(c1ccoc1)N1CCC[C@H](n2nc(C(=O)N3CCOCC3)c3c2-c2ccccc2S(=O)(=O)C3)C1 [Example 396],0.75
8,O=C(c1nn(C2CCCOC2)c2c1CS(=O)(=O)c1ccccc1-2)N1CCOCC1 (stereo not drawn) [Example 99],0.326
9,"O=C(c1nn(CCN2CCOCC2)c2c1CS(=O)(=O)c1ccccc1-2)N1CCOCC1 [Example 72, 3-(Morpholin-4-ylcarbonyl)-1-(2-morpholin-4-ylethyl)-1,4-dihydrothiochromeno[4,3-c]pyrazole 5,5-dioxide]",0.795
10,"O=C(c1nn(-c2cccc(Br)c2)c2c1CS(=O)(=O)c1ccccc1-2)N1CCOCC1 [Example 25, 1-(3-bromophenyl)-3-(morpholin-4-ylcarbonyl)-1,4-dihydrothiochromeno[4,3-c]pyrazole 5,5-dioxide]",0.616
11,"O=C(c1nn(-c2cccc(-c3nccs3)c2)c2c1CS(=O)(=O)c1ccccc1-2)N1CCOCC1 [Example 189, 3-(Morpholin-4-ylcarbonyl)-1-[3-(1,3-thiazol-2-yl)phenyl]-1,4-dihydrothiochromeno[4,3-c]pyrazole 5,5-dioxide]",4.22
12,N#Cc1cccc(-n2nc(C(=O)N3CCOCC3)c3c2-c2ccccc2S(=O)(=O)C3)c1 [Example 68],0.376
13,"O=C(c1nn(C2CCCN(CCC3CCOCC3)C2)c2c1CS(=O)(=O)c1c(Cl)cccc1-2)N1CCOCC1 (stereo not drawn) [Example 301, 6-Chloro-3-(morpholin-4-ylcarbonyl)-1-{1-[2-(tetrahydro-2H-pyran-4-yl)ethyl]piperidin-3-yl}-1,4-dihydrothiochromeno[4,3-c]pyrazole 5.5-dioxide]",0.038
14,"O=C(c1nn([C@@H]2CCCN(CC3CCOCC3)C2)c2c1CS(=O)(=O)c1ncccc1-2)N1CCOCC1 (single isomer, unassigned) [Example 371, 3-(morpholin-4-ylcarbonyl)-1-[1-(tetrahydro-2H-pyran-4-ylmethyl)piperidin-3-yl]-1,4-dihydropyrazolo[3′,4′:4,5]thiopyrano[2,3-b]pyridine 5,5-dioxide]",0.83
15,"O=C(c1nn(-c2cccc(CO)c2)c2c1CS(=O)(=O)c1ccccc1-2)N1CCOCC1 [Example 141, {3-[3-(Morpholin-4-ylcarbonyl)-5,5-dioxidothiochromeno[4,3-c]pyrazol-1(4H)-yl]phenyl}methanol]",2.25
16,"CC1CCC(n2nc(C(=O)N3CCOCC3)c3c2-c2ccccc2S(=O)(=O)C3)CC1 (stereo not drawn) [Example 127, 1-(4-Methylcyclohexyl)-3-(morpholin-4-ylcarbonyl)-1,4-dihydrothiochromeno[4,3-c]pyrazole 5,5-dioxide]",0.426
17,"CC(C)CCOC1CCN(Cc2ccc(-n3nc(C(=O)N4CCOCC4)c4c3-c3ccccc3S(=O)(=O)C4)cc2)C1 (stereo not drawn) [Example 233, 1-(4-{[3-(3-Methylbutoxy)pyrrolidin-1-yl]methyl}phenyl)-3-(morpholin-4-ylcarbonyl)-1,4-dihydrothiochromeno[4,3-c]pyrazole 5,5-dioxide]",0.167

row,SMILES,IC50 [µM]
1,"COc1cccc(-n2nc(C(=O)N3CCOCC3)c3c2-c2ccccc2S(=O)(=O)C3)c1 [Example 9, 1-(3-methoxyphenyl)-3-(morpholin-4-ylcarbonyl)-1,4-dihydrothiochromeno[4,3-c]pyrazole 5,5-dioxide]",1.32
2,"O=C(c1nn(C2CCOCC2)c2c1CS(=O)(=O)c1c(Cl)cccc1-2)N1CCOCC1 [Example 264, 6-Chloro-3-(morpholin-4-ylcarbonyl)-1-(tetrahydro-2H-pyran-4-yl)-1,4-dihydrothiochromeno[4,3-c]pyrazole 5,5-dioxide]",0.673
3,"O=C(c1nn(C2CCN(CCN3CCOCC3)CC2)c2c1CS(=O)(=O)c1ccccc1-2)N1CCOCC1 [Example 290, 3-(Morpholin-4-ylcarbonyl)-1-[1-(2-morpholin-4-ylethyl)piperidin-4-yl]-1,4-dihydrothiochromeno[4,3-c]pyrazole 5,5-dioxide]",0.369
4,"O=C(c1nn([C@H]2CCCN(CCN3CCC(O)CC3)C2)c2c1CS(=O)(=O)c1ccccc1-2)N1CCOCC1 (stereo in doubt) [Example 463, 1-(2-{3-[3-(morpholin-4-ylcarbonyl)-5,5-dioxidothiochromeno[4,3-c]pyrazol-1(4H)-yl]piperidin-1-yl}ethyl)piperidin-4-ol]",0.018
5,"COc1cccc2c1S(=O)(=O)Cc1c(C(=O)N3CCOCC3)nn(C)c1-2 [Example 2, 6-methoxy-1-methyl-3-(morpholin-4-ylcarbonyl)-1,4-dihydrothiochromeno[4,3-c]pyrazole 5,5-dioxide]",1.73
6,"COC1CCN(CCN2CCC[C@H](n3nc(C(=O)N4CCOCC4)c4c3-c3ccccc3S(=O)(=O)C4)C2)CC1 (stereo in doubt) [Example 460, 1-{1-[2-(4-methoxypiperidin-1-yl)ethyl]piperidin-3-yl}-3-(morpholin-4-ylcarbonyl)-1,4-dihydrothiochromeno[4,3-c]pyrazole 5,5-dioxide]",0.021
7,"O=C(c1nn(-c2ccc(F)cc2)c2c1CS(=O)(=O)c1ccccc1-2)N1CCOCC1 [Example 28, 1-(4-fluorophenyl)-3-(morpholin-4-ylcarbonyl)-1,4-dihydrothiochromeno[4,3-c]pyrazole 5,5-dioxide]",0.373
8,"CN1CCCC(n2nc(C(=O)N3CCOCC3)c3c2-c2ccccc2S(=O)(=O)C3)C1 (stereo not drawn) [Example 77, 1-(1-Methylpiperidin-3-yl)-3-(morpholin-4-ylcarbonyl)-1,4-dihydrothiochromeno[4,3-c]pyrazole 5,5-dioxide]",0.772
9,"COCC(=O)N1CCC[C@H](n2nc(C(=O)N3CCOCC3)c3c2-c2ccccc2S(=O)(=O)C3)C1 (stereo in doubt) [Example 447, 1-[1-(methoxyacetyl)piperidin-3-yl]-3-(morpholin-4-ylcarbonyl)-1,4-dihydrothiochromeno[4,3-c]pyrazole 5,5-dioxide]",0.261
10,"O=C(c1nn(C2CCCN(CCN3CCOCC3)C2)c2c1CS(=O)(=O)c1c(F)cccc1-2)N1CCOCC1 (stereo not drawn) [Example 413, 6-fluoro-3-(morpholin-4-ylcarbonyl)-1-[1-(2-morpholin-4-ylethyl)piperidin-3-yl]-1,4-dihydrothiochromeno[4,3-c]pyrazole 5,5-dioxide]",0.016
11,"O=C(c1nn([C@@H]2CCCNC2)c2c1CS(=O)(=O)c1ccccc1-2)N1CCOCC1 (single isomer, unassigned) [Example 358]",3
12,CC1CC(C)CC(n2nc(C(=O)N3CCOCC3)c3c2-c2ccccc2S(=O)(=O)C3)C1 (stereo not drawn) [Example 321],7.96
13,"O=C(c1nn(-c2cccc(-c3ccncc3)c2)c2c1CS(=O)(=O)c1ccccc1-2)N1CCOCC1 [Example 187, 3-(Morpholin-4-ylcarbonyl)-1-(3-pyridin-4-ylphenyl)-1,4-dihydrothiochromeno[4,3-c]pyrazole 5,5-dioxide]",0.193
14,"COCCCn1nc(C(=O)N2CCOCC2)c2c1-c1ccccc1S(=O)(=O)C2 [Example 44, 1-(3-methoxypropyl)-3-(morpholin-4-ylcarbonyl)-1,4-dihydrothiochromeno[4,3-c]pyrazole 5,5-dioxide]",0.907
15,"O=C(c1nn(C2CCCN(C3CCOCC3)C2)c2c1CS(=O)(=O)c1ccccc1-2)N1CCOCC1 (stereo not drawn) [Example 293, 3-(Morpholin-4-ylcarbonyl)-1-[1-(tetrahydro-2H-pyran-4-yl)piperidin-3-yl]-1,4-dihydrothiochromeno[4,3-c]pyrazole 5,5-dioxide]",0.254
16,"O=C(c1ccc(-n2nc(C(=O)N3CCOCC3)c3c2-c2ccccc2S(=O)(=O)C3)cc1)N1CCCCC1 [Example 151, 3-(Morpholin-4-ylcarbonyl)-1-[4-(piperidin-1-ylcarbonyl)phenyl]-1,4-dihydrothiochromeno[4,3-c]pyrazole 5,5-dioxide]",0.238
17,"O=C(c1nn(C2CCN(CC3CCOC3)C2)c2c1CS(=O)(=O)c1ccccc1-2)N1CCOCC1 (stereo not drawn) [Example 303, 3-(Morpholin-4-ylcarbonyl)-1-[1-(tetrahydrofuran-3-ylmethyl)pyrrolidin-3-yl]-1,4-dihydrothiochromeno[4,3-c]pyrazole 5,5-dioxide]",0.353

# Same assay, conditions: inhibition at 20 μM
row,SMILES,"Best potency measured on the 4 PI3K isoforms, % inh @20 μM [% inh @20 μM]"
1,COc1cc(OC)cc(-n2nc(C(=O)N3CCOCC3)c3c2-c2ccccc2S(=O)(=O)C3)c1 [Example 67],54
2,CS(=O)(=O)c1ccccc1-n1nc(C(=O)N2CCOCC2)c2c1-c1ccccc1S(=O)(=O)C2 [Example 314],45
